ChEMBL document CHEMBL1201862, “PubChem BioAssay data set” (2004)
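Briefly, cells in 96-well plates were exposed to five compound concentrations for 48 h, and endpoints were estimated by linear interpolation. Abbreviation: GI50, concentration required for 50% inhibition of growth.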 Activity calls are given as the source filed them. Cut-off read from the data, not from the text of the source: active = GI50 up to about 1.1 µM and inactive = higher.

Assays:
Experiment in all cases: NCI-60 cell line screen, 48 h
Malme-3M = test system: Malme-3M
M14 = test system: M14
OVCAR-3 = test system: OVCAR-3
NCI/ADR-RES = test system: NCI/ADR-RES
A549 = test system: A549
SK-OV-3 = test system: SK-OV-3
SW-620 = test system: SW-620
RPMI-8226 = test system: RPMI-8226
SK-MEL-5 = test system: SK-MEL-5
HL-60 = test system: HL-60
KM12 = test system: KM12
MDA-N = test system: MDA-N
HOP-62 = test system: HOP-62
DU-145 = test system: DU-145
UACC-62 = test system: UACC-62
SK-MEL-2 = test system: SK-MEL-2
SF-539 = test system: SF-539
UACC-257 = test system: UACC-257
OVCAR-5 = test system: OVCAR-5
OVCAR-8 = test system: OVCAR-8

With `CCOC(=O)C(=O)/C(=C/NC(=S)c1ccncc1)C(=O)OCC` the GI50 (Malme-3M) was > 100 µM (inactive), the GI50 (M14) was > 100 µM (inactive) and the GI50 (OVCAR-3) was 0.0724 µM (active). For the same compound, the GI50 (NCI/ADR-RES) was > 100 µM (inactive), the GI50 (A549) was > 100 µM (inactive) and the GI50 (SK-OV-3) was > 100 µM (inactive). For the same compound, the GI50 (SW-620) was > 100 µM (inactive), the GI50 (RPMI-8226) was > 100 µM (inactive) and the GI50 (SK-MEL-5) was > 100 µM (inactive). For the same compound, the GI50 (HL-60) was > 100 µM (inactive), the GI50 (KM12) was > 100 µM (inactive) and the GI50 (MDA-N) was > 100 µM (inactive). For the same compound, the GI50 (HOP-62) was > 100 µM (inactive), the GI50 (DU-145) was > 100 µM (inactive) and the GI50 (UACC-62) was > 100 µM (inactive). For the same compound, the GI50 (SK-MEL-2) was > 100 µM (inactive), the GI50 (SF-539) was > 100 µM (inactive) and the GI50 (UACC-257) was > 100 µM (inactive). The GI50 (OVCAR-5) was > 100 µM (inactive) and the GI50 (OVCAR-8) was > 100 µM (inactive).
With `Cc1ccc(I)cc1N=C=S` the GI50 (Malme-3M) was 25.1 µM (inactive), the GI50 (M14) was 20.2 µM (inactive) and the GI50 (OVCAR-3) was 31 µM (inactive). For the same compound, the GI50 (NCI/ADR-RES) was 25.9 µM (inactive), the GI50 (A549) was 28.6 µM (inactive) and the GI50 (SK-OV-3) was 37.3 µM (inactive). The GI50 (SW-620) was 32.7 µM (inactive), the GI50 (RPMI-8226) was 20.8 µM (inactive) and the GI50 (SK-MEL-5) was 16.5 µM (inactive). The GI50 (HL-60) was 21.6 µM (inactive), the GI50 (KM12) was 17.3 µM (inactive) and the GI50 (MDA-N) was 27.9 µM (inactive). For the same compound, the GI50 (HOP-62) was 26.1 µM (inactive), the GI50 (DU-145) was 28.3 µM (inactive) and the GI50 (UACC-62) was 17.3 µM (inactive). For the same compound, the GI50 (SK-MEL-2) was 17.8 µM (inactive), the GI50 (SF-539) was 18.8 µM (inactive) and the GI50 (UACC-257) was 25 µM (inactive). For the same compound, the GI50 (OVCAR-5) was 23.4 µM (inactive) and the GI50 (OVCAR-8) was 38.4 µM (inactive).
In the case of `O=C1C(c2ccccc2)=[N+]([O-])c2ccccc21`, the GI50 (Malme-3M) is reported as 17.4 µM (inactive), the GI50 (M14) is reported as 12.4 µM (inactive) and the GI50 (OVCAR-3) is reported as 13.6 µM (inactive). The GI50 (NCI/ADR-RES) was 17.7 µM (inactive), the GI50 (A549) was 19.9 µM (inactive) and the GI50 (SK-OV-3) was 17.6 µM (inactive). For the same compound, the GI50 (SW-620) was 5.83 µM (inactive), the GI50 (RPMI-8226) was 14.9 µM (inactive) and the GI50 (SK-MEL-5) was 11.1 µM (inactive). For the same compound, the GI50 (HL-60) was 14.9 µM (inactive), the GI50 (KM12) was 19.8 µM (inactive) and the GI50 (MDA-N) was 3.29 µM (inactive). The GI50 (HOP-62) was 18.7 µM (inactive), the GI50 (DU-145) was 15.7 µM (inactive) and the GI50 (UACC-62) was 15.5 µM (inactive). The GI50 (SK-MEL-2) was 14.7 µM (inactive), the GI50 (SF-539) was 18.8 µM (inactive) and the GI50 (UACC-257) was 13.3 µM (inactive). The GI50 (OVCAR-5) was 22.4 µM (inactive) and the GI50 (OVCAR-8) was 18.6 µM (inactive).
`CCOC(=O)C(NC(=O)c1ccccc1)(Nc1ccc(S(=O)(=O)Nc2nc(C)cc(C)n2)cc1)C(F)(F)F` (stereo not given) was tested, and the GI50 (Malme-3M) was > 100 µM (inactive), the GI50 (M14) was > 100 µM (inactive) and the GI50 (OVCAR-3) was > 100 µM (inactive). The GI50 (NCI/ADR-RES) was > 100 µM (inactive), the GI50 (A549) was > 100 µM (inactive) and the GI50 (SK-OV-3) was 0.778 µM (active). The GI50 (SW-620) was > 100 µM (inactive), the GI50 (RPMI-8226) was > 100 µM (inactive) and the GI50 (SK-MEL-5) was > 100 µM (inactive). For the same compound, the GI50 (HL-60) was > 100 µM (inactive), the GI50 (KM12) was > 100 µM (inactive) and the GI50 (MDA-N) was > 100 µM (inactive). For the same compound, the GI50 (HOP-62) was > 100 µM (inactive), the GI50 (DU-145) was > 100 µM (inactive) and the GI50 (UACC-62) was > 100 µM (inactive). The GI50 (SK-MEL-2) was > 100 µM (inactive), the GI50 (SF-539) was > 100 µM (inactive) and the GI50 (UACC-257) was > 100 µM (inactive). The GI50 (OVCAR-5) was > 100 µM (inactive) and the GI50 (OVCAR-8) was > 100 µM (inactive).
`O=C1C=CC(=O)C(CNc2ccc(C(=O)OC34CC5CC(CC(C5)C3)C4)cc2)=C1Br` was tested, and the GI50 (Malme-3M) was 4.9 µM (inactive), the GI50 (M14) was 13.4 µM (inactive) and the GI50 (OVCAR-3) was 13.5 µM (inactive). For the same compound, the GI50 (NCI/ADR-RES) was 3.82 µM (inactive), the GI50 (A549) was 13.3 µM (inactive) and the GI50 (SK-OV-3) was 17.3 µM (inactive). The GI50 (SW-620) was 18.2 µM (inactive), the GI50 (RPMI-8226) was 5.6 µM (inactive) and the GI50 (SK-MEL-5) was 9.31 µM (inactive). For the same compound, the GI50 (HL-60) was 1.66 µM (inactive), the GI50 (KM12) was 5.62 µM (inactive) and the GI50 (MDA-N) was 15.6 µM (inactive). For the same compound, the GI50 (HOP-62) was 19 µM (inactive), the GI50 (DU-145) was 23.6 µM (inactive) and the GI50 (UACC-62) was 7.38 µM (inactive). The GI50 (SK-MEL-2) was 15.4 µM (inactive), the GI50 (SF-539) was 1.59 µM (inactive) and the GI50 (UACC-257) was 13.5 µM (inactive). For the same compound, the GI50 (OVCAR-5) was 16.7 µM (inactive) and the GI50 (OVCAR-8) was 5.51 µM (inactive).
`C/C(=N\NC(=S)NC1CCCC1)c1ccccn1` was tested, and the GI50 (Malme-3M) was 0.434 µM (active), the GI50 (M14) was < 0.01 µM (active) and the GI50 (OVCAR-3) was < 0.01 µM (active). The GI50 (NCI/ADR-RES) was < 0.01 µM (active), the GI50 (A549) was 0.0991 µM (active) and the GI50 (SK-OV-3) was 0.1 µM (active). For the same compound, the GI50 (SW-620) was < 0.01 µM (active), the GI50 (RPMI-8226) was < 0.01 µM (active) and the GI50 (SK-MEL-5) was 0.205 µM (active). For the same compound, the GI50 (HL-60) was < 0.01 µM (active), the GI50 (KM12) was 0.0708 µM (active) and the GI50 (MDA-N) was 0.165 µM (active). For the same compound, the GI50 (HOP-62) was < 0.017 µM (active), the GI50 (DU-145) was 0.9 µM (active) and the GI50 (UACC-62) was 0.2 µM (active). The GI50 (SK-MEL-2) was 1.35 µM (inactive), the GI50 (SF-539) was 1.02 µM (active) and the GI50 (UACC-257) was < 0.01 µM (active). For the same compound, the GI50 (OVCAR-5) was 0.0356 µM (active) and the GI50 (OVCAR-8) was < 0.0218 µM (active).
